The text below walks through data of PubChem BioAssay AID624129 (Sanford-Burnham Center for Chemical Genomics, 2012).

Test in all cases: CXCR6 receptor antagonists, dose response, cell-based, beta-arrestin, DiscoveRx, APJ panel, uHTS hits (AID 624129)
Test [1] has as its target C-C chemokine receptor type 6 (Homo sapiens) (UniProt P51684). The following applies: CXCR6 beta-arrestin (DiscoveRx) antagonist cell assay.
The target in test [2] is C-X-C chemokine receptor type 6 (Homo sapiens) (UniProt O00574). To be noted: CXCR6 beta-arrestin (DiscoveRx) antagonist cell assay; for inhibition: CXCR6, run 1, dose range 2, at 80 µM (top of the series).
Test [3] addresses Beta-galactosidase (Escherichia coli) (UniProt Q8VNN2). To be noted: CXCR6 beta-arrestin (DiscoveRx) antagonist cell assay, b-galactosidase.
Test [4] addresses Apelin receptor (Homo sapiens) (UniProt P35414). The following applies: CXCR6 beta-arrestin (DiscoveRx) antagonist cell assay, APJ.
The mark [5] stands for this setting: CCR6, dose range 1, mean IC50 across replicates.
Where [6] appears, read: CXCR6, dose range 1, mean IC50 across replicates.
Where [7] appears, read: dose range 1, mean IC50 across replicates.

The source made the active and inactive calls. How the calls were made is not given here. Some results are limits rather than exact numbers.

Sequence of C-X-C chemokine receptor type 6 (Homo sapiens) (O00574 whole entry, looked up): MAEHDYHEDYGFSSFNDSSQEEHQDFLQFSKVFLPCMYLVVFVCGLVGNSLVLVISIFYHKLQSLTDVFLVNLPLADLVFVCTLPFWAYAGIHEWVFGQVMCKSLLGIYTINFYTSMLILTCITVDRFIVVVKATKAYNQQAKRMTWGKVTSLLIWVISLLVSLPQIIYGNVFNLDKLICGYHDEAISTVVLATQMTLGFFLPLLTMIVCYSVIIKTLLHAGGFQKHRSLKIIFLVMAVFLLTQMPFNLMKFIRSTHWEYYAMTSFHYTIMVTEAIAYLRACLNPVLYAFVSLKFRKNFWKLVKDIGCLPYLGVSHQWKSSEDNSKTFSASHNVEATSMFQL
Sequence of Beta-galactosidase (Escherichia coli) (Q8VNN2 whole entry, looked up): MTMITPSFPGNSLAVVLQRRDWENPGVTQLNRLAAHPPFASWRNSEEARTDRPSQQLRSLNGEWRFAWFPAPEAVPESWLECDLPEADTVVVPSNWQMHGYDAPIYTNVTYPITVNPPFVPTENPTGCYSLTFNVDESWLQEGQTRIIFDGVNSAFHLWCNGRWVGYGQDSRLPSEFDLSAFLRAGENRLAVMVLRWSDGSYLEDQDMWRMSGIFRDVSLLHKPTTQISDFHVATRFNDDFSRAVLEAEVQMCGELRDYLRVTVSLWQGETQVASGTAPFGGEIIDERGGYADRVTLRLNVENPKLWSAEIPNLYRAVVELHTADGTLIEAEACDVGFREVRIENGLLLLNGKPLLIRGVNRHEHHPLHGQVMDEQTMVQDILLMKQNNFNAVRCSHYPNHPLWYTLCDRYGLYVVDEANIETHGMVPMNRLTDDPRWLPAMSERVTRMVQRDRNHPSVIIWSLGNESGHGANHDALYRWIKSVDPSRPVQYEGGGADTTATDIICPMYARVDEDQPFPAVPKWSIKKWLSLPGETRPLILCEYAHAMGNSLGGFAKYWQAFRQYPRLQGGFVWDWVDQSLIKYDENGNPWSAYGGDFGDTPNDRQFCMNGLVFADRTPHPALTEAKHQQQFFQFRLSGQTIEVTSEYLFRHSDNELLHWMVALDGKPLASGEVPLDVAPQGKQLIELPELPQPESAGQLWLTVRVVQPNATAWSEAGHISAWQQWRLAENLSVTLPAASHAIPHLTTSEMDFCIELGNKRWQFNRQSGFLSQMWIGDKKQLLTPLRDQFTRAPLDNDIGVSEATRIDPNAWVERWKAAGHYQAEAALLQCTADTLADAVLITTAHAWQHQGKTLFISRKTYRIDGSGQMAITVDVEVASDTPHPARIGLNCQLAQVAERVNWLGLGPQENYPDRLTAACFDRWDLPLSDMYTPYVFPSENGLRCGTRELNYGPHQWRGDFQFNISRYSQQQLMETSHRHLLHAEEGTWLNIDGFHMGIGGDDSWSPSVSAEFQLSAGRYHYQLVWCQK

Broadly, the IC50 is the midpoint of a concentration-inhibition curve. The inhibition is the relative decrease from the control value, in per cent. As for `Cc1cc(S(=O)(=O)c2ccc(Cl)cc2)nc(S(=O)(=O)c2ccc(Cl)cc2)c1C#N`, the IC50 is 30.5 µM in test [1] (setting [5]); 30.5 µM in test [1] (CCR6, run 2, dose range 1); 18.3 µM in test [2] (setting [6]); 8.04 µM in test [2] (CXCR6, run 2, dose range 1); 50.1 µM in test [3] (setting [7]); 22.9 µM in test [4] (dose range 1). Moreover, the IC50 is 37 µM in test [4] (setting [7]); 31.3 µM in test [4] (run 2, dose range 1); 56.9 µM in test [4] (run 3, dose range 1). Further, the IC50 entry in test [2] (CXCR6, dose range 1) was “inactive”; in test [3] (dose range 1) it was “inactive”. Moreover, the inhibition in test [2] is 93.1%.
For the compound `CCC(=O)OCCNc1cc(Sc2nc3ccccc3[nH]2)c2nonc2c1[N+](=O)[O-]`, the IC50 in test [1] (CCR6, dose range 1) is 4.73 µM; in test [1] (setting [5]), 4.66 µM; in test [1] (CCR6, run 2, dose range 1) it was 4.58 µM; in test [2] (CXCR6, dose range 1) it was 4.57 µM; in test [2] (setting [6]), 5.64 µM; in test [2] (CXCR6, run 1, dose range 2) it was 5.85 µM. Further, the IC50 in test [2] (CXCR6, run 2, dose range 1) is 6.71 µM; in test [2] (CXCR6, run 2, dose range 2), 5.42 µM; in test [3] (dose range 1) it was 27.1 µM; in test [3] (setting [7]), 27.1 µM; in test [4] (dose range 1), 9.49 µM; in test [4] (setting [7]), 7.79 µM. The IC50 was determined as 6.65 µM in test [4] (run 2, dose range 1) and 7.23 µM in test [4] (run 3, dose range 1).
On to `COc1cc(/C=C/c2ccc3cccc(O)c3n2)ccc1O`, for which the IC50 in test [1] (CCR6, dose range 1) was 13 µM; in test [1] (setting [5]), 12.9 µM; in test [1] (CCR6, run 2, dose range 1), 12.9 µM; in test [2] (setting [6]), 14.4 µM; in test [2] (CXCR6, run 2, dose range 1) it was 13.1 µM; in test [3] (dose range 1) it was > 80 µM (inactive). In addition, the IC50 in test [3] (setting [7]) was more than 80 µM; in test [4] (dose range 1) it was 15.3 µM; in test [4] (setting [7]), 19.1 µM; in test [4] (run 2, dose range 1) it was 20.7 µM; in test [4] (run 3, dose range 1) it was 21.4 µM. Further, the IC50 entry in test [2] (CXCR6, dose range 1) is “inactive”. Also, the inhibition in test [2] is 131%.
On to `CC(=O)Nc1ccc(Sc2ccc([N+](=O)[O-])o2)cc1`, for which the IC50 in test [1] (CCR6, dose range 1) was 9.21 µM; in test [1] (setting [5]) it was 8.82 µM; in test [1] (CCR6, run 2, dose range 1), 8.44 µM; in test [2] (CXCR6, dose range 1), 13.7 µM; in test [2] (setting [6]) it was 10.7 µM; in test [2] (CXCR6, run 1, dose range 2), 9.08 µM. Also, the IC50 in test [2] (CXCR6, run 2, dose range 1) was 8.84 µM; in test [2] (CXCR6, run 2, dose range 2), 11.3 µM; in test [3] (dose range 1), > 80 µM (inactive); in test [3] (setting [7]), more than 80 µM; in test [4] (dose range 1), 14.2 µM; in test [4] (setting [7]), 14.4 µM. The IC50 in test [4] (run 2, dose range 1) was found to be 15.4 µM; in test [4] (run 3, dose range 1), 13.6 µM.
Turning to `CCCCCCN1C=C/C(=C\C=C(C#N)C#N)c2ccccc21`, the IC50 is 23.4 µM in test [1] (CCR6, dose range 1); 19.9 µM in test [1] (setting [5]); 16.3 µM in test [1] (CCR6, run 2, dose range 1); 42.5 µM in test [2] (setting [6]); 43.9 µM in test [2] (CXCR6, run 2, dose range 1); > 80 µM (inactive) in test [3] (dose range 1). For the same compound, the IC50 in test [3] (setting [7]) is more than 80 µM; in test [4] (dose range 1), 26.9 µM; in test [4] (setting [7]), 35.4 µM; in test [4] (run 2, dose range 1) it was 52.3 µM; in test [4] (run 3, dose range 1), 27.1 µM. Also, in test [2] (CXCR6, dose range 1), the IC50 entry is “inactive”. Further, the inhibition in test [2] is 158%.
As to `COc1ccc(OC)c2sc(N(CCCN(C)C)C(=O)CCS(=O)(=O)c3ccccc3)nc12`, the IC50 is 10.4 µM in test [1] (CCR6, dose range 1); 11.3 µM in test [1] (setting [5]); 12.3 µM in test [1] (CCR6, run 2, dose range 1); 12.5 µM in test [2] (setting [6]); 10.6 µM in test [2] (CXCR6, run 2, dose range 1); > 80 µM (inactive) in test [3] (dose range 1). In addition, the IC50 in test [3] (setting [7]) was more than 80 µM; in test [4] (dose range 1) it was 21.7 µM; in test [4] (setting [7]) it was 19.6 µM; in test [4] (run 2, dose range 1), 18.2 µM; in test [4] (run 3, dose range 1) it was 19 µM. Besides, the IC50 entry in test [2] (CXCR6, dose range 1) is “inactive”. For the same compound, the inhibition in test [2] worked out at 114%.
Consider `C/C(=N\NC(=O)COc1ccccc1-c1ccccc1)c1ccccn1`, for which the IC50 in test [1] (CCR6, dose range 1) was 2.07 µM; in test [1] (setting [5]) it was 2.25 µM; in test [1] (CCR6, run 2, dose range 1), 2.44 µM; in test [2] (CXCR6, dose range 1), 2.76 µM; in test [2] (setting [6]), 2.31 µM; in test [2] (CXCR6, run 1, dose range 2), 2.01 µM. Further, the IC50 in test [2] (CXCR6, run 2, dose range 1) was 2.94 µM; in test [2] (CXCR6, run 2, dose range 2), 1.51 µM; in test [3] (dose range 1), > 80 µM (inactive); in test [3] (setting [7]) it was more than 80 µM; in test [4] (dose range 1), 2.32 µM; in test [4] (setting [7]), 2.46 µM. In addition, the IC50 is 2.59 µM in test [4] (run 2, dose range 1) and more than 80 µM in test [4] (run 3, dose range 1).
For `O=C1C=CC(=O)N1Cc1ccccc1`, the IC50 was 6.91 µM in test [1] (CCR6, dose range 1); 7.21 µM in test [1] (setting [5]); 7.51 µM in test [1] (CCR6, run 2, dose range 1); 10.8 µM in test [2] (CXCR6, dose range 1); 8.3 µM in test [2] (setting [6]); 5.84 µM in test [2] (CXCR6, run 2, dose range 1). Also, the IC50 in test [3] (dose range 1) is > 80 µM (inactive); in test [3] (setting [7]), more than 80 µM; in test [4] (dose range 1), 12 µM; in test [4] (setting [7]), 11 µM; in test [4] (run 2, dose range 1), 11.4 µM; in test [4] (run 3, dose range 1), 9.67 µM. The inhibition in test [2] amounted to 122%.
As to `O=C(c1nnsc1S(=O)c1ccc(Cl)cc1)N1CCOCC1` (centres undefined), the IC50 in test [1] (CCR6, dose range 1) is 13.2 µM; in test [1] (setting [5]) it was 34.3 µM; in test [1] (CCR6, run 2, dose range 1) it was 55.4 µM; in test [2] (setting [6]) it was 18.3 µM; in test [2] (CXCR6, run 2, dose range 1), 17.4 µM; in test [3] (dose range 1), > 80 µM (inactive). The IC50 in test [3] (setting [7]) was more than 80 µM; in test [4] (dose range 1), 19 µM; in test [4] (setting [7]), 27.6 µM; in test [4] (run 2, dose range 1) it was 24.9 µM; in test [4] (run 3, dose range 1) it was 38.9 µM. For the same compound, the IC50 entry in test [2] (CXCR6, dose range 1) was “inactive”. Also, the inhibition in test [2] turned out to be 56.2%.
With `O=C(Nc1ccccc1Cl)/C(Cl)=C(\Cl)S(=O)c1ccccc1` (centres undefined), the IC50 in test [1] (CCR6, dose range 1) is 8.58 µM; in test [1] (setting [5]), 8.32 µM; in test [1] (CCR6, run 2, dose range 1), 8.05 µM; in test [2] (CXCR6, dose range 1), 9.69 µM; in test [2] (setting [6]), 9.93 µM; in test [2] (CXCR6, run 1, dose range 2) it was 9.44 µM. The IC50 in test [2] (CXCR6, run 2, dose range 1) is 10.4 µM; in test [2] (CXCR6, run 2, dose range 2) it was 10.2 µM; in test [3] (dose range 1), > 80 µM (inactive); in test [3] (setting [7]) it was more than 80 µM; in test [4] (dose range 1), 12.7 µM; in test [4] (setting [7]) it was 11.7 µM. Further, the IC50 in test [4] (run 2, dose range 1) was 11.9 µM; in test [4] (run 3, dose range 1), 10.5 µM.
Turning to `COc1ccc([N+](=O)[O-])c(S(=O)(=O)c2ccccc2)n1`, the IC50 was 22.6 µM in test [1] (CCR6, dose range 1); 19.5 µM in test [1] (setting [5]); 16.5 µM in test [1] (CCR6, run 2, dose range 1); 35.4 µM in test [2] (setting [6]); 24.9 µM in test [2] (CXCR6, run 2, dose range 1); 50.7 µM in test [3] (setting [7]). Moreover, the IC50 in test [4] (dose range 1) was 21.5 µM; in test [4] (setting [7]), 22.9 µM; in test [4] (run 2, dose range 1), more than 80 µM; in test [4] (run 3, dose range 1), 24.4 µM. Also, the IC50 result is “inactive” in test [2] (CXCR6, dose range 1) and “inactive” in test [3] (dose range 1). In addition, the inhibition in test [2] is 102%.
As for `O=[N+]([O-])c1c(NCCCO)cc(Sc2nc3ccccc3s2)c2nonc12`, the IC50 was 8.25 µM in test [1] (CCR6, dose range 1); 8.81 µM in test [1] (setting [5]); 9.37 µM in test [1] (CCR6, run 2, dose range 1); 14.3 µM in test [2] (setting [6]); 13.5 µM in test [2] (CXCR6, run 2, dose range 1); > 80 µM (inactive) in test [3] (dose range 1). Moreover, the IC50 in test [3] (setting [7]) is more than 80 µM; in test [4] (dose range 1) it was 9.5 µM; in test [4] (setting [7]) it was 11.5 µM; in test [4] (run 2, dose range 1), 11.7 µM; in test [4] (run 3, dose range 1) it was 13.2 µM. Besides, in test [2] (CXCR6, dose range 1), the IC50 result is “inactive”. In addition, in test [2], the inhibition was found to be 118%.
